Values of other authors, collected in US20240293300A1, “SKIN PENETRATION COSMETIC MATERIAL, AND SKIN PENETRATION COSMETIC MATERIAL PRODUCTION METHOD” (SHISEIDO COMPANY, LTD., priority 2021, published 2024).
Where a SMILES comes first, the peptide text is derived from it.

Conditions: 1-octanol/water partition coefficient

Molecule	Log P
piperidine propionic acid	−2.06
Cc1cc(C)nc(-n2nc(C)cc2C)n1.Cl [compound a, 2-(3,5-dimethylpyrazol-1-yl)-4,6-dimethyl pyrimidine hydrochloride]	1.36
N[C@@H](CCC(=O)O)C(=O)O [glutamic acid]	−3.7
NCC(=O)NCC(=O)O [glycylglycine] (H-Gly-Gly-OH)	−2.3
